Reference: patent publication US11053204B2, “Pyrimidinyloxy benzene derivatives as herbicides” (FMC Corporation, priority 2015, dated 2021)

What was measured:
Assay type in all cases: in vivo
[1] = system: Italian ryegrass (Lolium multiflorum); assay: Test A preemergence, visual injury rating
Procedure, shortened: (§1)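 Compounds in non-phytotoxic solvent with surfactant applied as soil spray preemergence, or postemergence to plants 2-10 cm at one- to two-leaf stage, in loam/sand. After approximately 10 days in greenhouse, injury rated visually versus untreated controls, 0 (no effect) to 100 (complete control).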

[2] = system: giant foxtail (Setaria faberii); assay: Test A preemergence, visual injury rating
Procedure, shortened: as §1

[3] = system: pigweed (Amaranthus retroflexus); assay: Test A preemergence, visual injury rating
Procedure, shortened: as §1

[4] = system: ragweed (common ragweed, Ambrosia elatior); assay: Test A preemergence, visual injury rating
Procedure, shortened: as §1

[5] = system: lambsquarters (Chenopodium album); assay: Test C preemergence, plant response rating; conditions: Preemergence
Procedure, shortened: (§2)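 Greenhouse plants rated visually against untreated controls 13–15 d after treatment, scale 0 = no effect to 100 = complete control. Postemergence sprays went onto potted plants 2–18 cm tall (1–4 leaves); preemergence sprays onto soil freshly sown in loam–sand or silt loam, chemicals formulated in non-phytotoxic solvent with surfactant.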

[6] = system: waterhemp (common waterhemp, Amaranthus rudis); assay: Test C preemergence, plant response rating; conditions: Preemergence
Procedure, shortened: as §2

[7] = system: crabgrass, large (large crabgrass, Digitaria sanguinalis); assay: Test C preemergence, plant response rating; conditions: Preemergence
Procedure, shortened: as §2

[8] = system: ryegrass, Italian (Italian ryegrass, Lolium multiflorum); assay: Test C preemergence, plant response rating; conditions: Preemergence
Procedure, shortened: as §2

[9] = system: velvetleaf (Abutilon theophrasti); assay: Test C preemergence, plant response rating; conditions: Preemergence
Procedure, shortened: as §2

[10] = system: blackgrass (Alopecurus myosuroides); assay: Test C preemergence, plant response rating; conditions: Preemergence
Procedure, shortened: as §2

[11] = system: soybean (Glycine max); assay: Test C preemergence, plant response rating; conditions: Preemergence
Procedure, shortened: as §2

[12] = system: corn (Zea mays); assay: Test C preemergence, plant response rating; conditions: Preemergence
Procedure, shortened: as §2

[13] = system: oilseed rape (Brassica napus); assay: Test C preemergence, plant response rating; conditions: Preemergence
Procedure, shortened: as §2

[14] = system: foxtail, giant (giant foxtail, Setaria faberii); assay: Test C preemergence, plant response rating; conditions: Preemergence
Procedure, shortened: as §2

[15] = system: wheat (winter wheat, Triticum aestivum); assay: Test C preemergence, plant response rating; conditions: Preemergence
Procedure, shortened: as §2

[16] = system: ragweed (common ragweed, Ambrosia elatior); assay: Test C preemergence, plant response rating; conditions: Preemergence
Procedure, shortened: as §2

[17] = system: nutsedge, yellow (yellow nutsedge, Cyperus esculentus); assay: Test C preemergence, plant response rating; conditions: Preemergence
Procedure, shortened: as §2

[18] = system: morningglory (Ipomoea coccinea); assay: Test C preemergence, plant response rating; conditions: Preemergence
Procedure, shortened: as §2

[19] = 31 g ai/ha, 0 to 100 scale, 0 no effect, 100 complete control
[20] = 125 g ai/ha, 0 to 100 scale (0 no effect, 100 complete control)

O=C(CCCC(F)(F)F)c1c(Br)cccc1Oc1ncc(Cl)cn1 [Compound 77]
Plant response rating, Ryegrass, Italian [1, 19]: 0 | Ryegrass, Italian plant response rating [1, 20]: 70 | Plant response rating, Foxtail, Giant [2, 19]: 100 | Foxtail, Giant plant response rating [2, 20]: 100 | Plant response rating, Pigweed [3, 19]: 100 | Pigweed plant response rating [3, 20]: 100 | Plant response rating, Ragweed [4, 19]: 0 | Ragweed plant response rating [4, 20]: 0 | Plant response rating, Lambsquarters ([5]; 125 g ai/ha, scale of 0 to 100): 98 | Plant response rating, Lambsquarters ([5]; 16 g ai/ha, scale 0 to 100): 50 | Plant response rating, Lambsquarters ([5]; 31 g ai/ha, scale 0 to 100): 60 | Plant response rating, Lambsquarters ([5]; 62 g ai/ha, scale 0 to 100): 100 | Plant response rating, Waterhemp ([6]; 125 g ai/ha, scale of 0 to 100): 100 | Plant response rating, Waterhemp ([6]; 16 g ai/ha, scale 0 to 100): 95 | Plant response rating, Waterhemp ([6]; 31 g ai/ha, scale 0 to 100): 100 | Plant response rating, Waterhemp ([6]; 62 g ai/ha, scale 0 to 100): 100 | Plant response rating, Crabgrass, Large ([7]; 62 g ai/ha, scale of 0 to 100): 100 | Plant response rating, Crabgrass, Large ([7]; 125 g ai/ha, scale of 0 to 100): 100 | Plant response rating, Crabgrass, Large ([7]; 16 g ai/ha, scale 0 to 100): 98 | Plant response rating, Crabgrass, Large ([7]; 31 g ai/ha, scale 0 to 100): 100 | Plant response rating, Ryegrass, Italian ([8]; 125 g ai/ha, scale of 0 to 100): 90 | Plant response rating, Ryegrass, Italian ([8]; 16 g ai/ha, scale 0 to 100): 0 | Plant response rating, Ryegrass, Italian ([8]; 31 g ai/ha, scale 0 to 100): 30 | Plant response rating, Ryegrass, Italian ([8]; 62 g ai/ha, scale 0 to 100): 35 | Plant response rating, Velvetleaf ([9]; 125 g ai/ha, scale of 0 to 100): 100 | Plant response rating, Velvetleaf ([9]; 16 g ai/ha, scale 0 to 100): 10 | Plant response rating, Velvetleaf ([9]; 31 g ai/ha, scale 0 to 100): 30 | Plant response rating, Velvetleaf ([9]; 62 g ai/ha, scale 0 to 100): 70 | Plant response rating, Blackgrass ([10]; 62 g ai/ha, scale of 0 to 100): 90 | Plant response rating, Blackgrass ([10]; 125 g ai/ha, scale of 0 to 100): 100 | Plant response rating, Blackgrass ([10]; 16 g ai/ha, scale 0 to 100): 5 | Plant response rating, Blackgrass ([10]; 31 g ai/ha, scale 0 to 100): 15 | Plant response rating, Soybean ([11]; 125 g ai/ha, scale of 0 to 100): 25 | Plant response rating, Soybean ([11]; 16 g ai/ha, scale 0 to 100): 5 | Plant response rating, Soybean ([11]; 31 g ai/ha, scale 0 to 100): 5 | Plant response rating, Soybean ([11]; 62 g ai/ha, scale 0 to 100): 15 | Plant response rating, Corn ([12]; 62 g ai/ha, scale of 0 to 100): 20 | Plant response rating, Corn ([12]; 125 g ai/ha, scale of 0 to 100): 35 | Plant response rating, Corn ([12]; 16 g ai/ha, scale 0 to 100): 0 | Plant response rating, Corn ([12]; 31 g ai/ha, scale 0 to 100): 15 | Plant response rating, Oilseed Rape ([13]; 125 g ai/ha, scale of 0 to 100): 100 | Plant response rating, Oilseed Rape ([13]; 16 g ai/ha, scale 0 to 100): 0 | Plant response rating, Oilseed Rape ([13]; 31 g ai/ha, scale 0 to 100): 55 | Plant response rating, Oilseed Rape ([13]; 62 g ai/ha, scale 0 to 100): 100 | Plant response rating, Foxtail, Giant ([14]; 62 g ai/ha, scale of 0 to 100): 100 | Plant response rating, Foxtail, Giant ([14]; 125 g ai/ha, scale of 0 to 100): 100 | Plant response rating, Foxtail, Giant ([14]; 16 g ai/ha, scale 0 to 100): 95 | Plant response rating, Foxtail, Giant ([14]; 31 g ai/ha, scale 0 to 100): 100 | Plant response rating, Wheat ([15]; 125 g ai/ha, scale of 0 to 100): 0 | Plant response rating, Wheat ([15]; 16 g ai/ha, scale 0 to 100): 0 | Plant response rating, Wheat ([15]; 31 g ai/ha, scale 0 to 100): 0 | Plant response rating, Wheat ([15]; 62 g ai/ha, scale 0 to 100): 0 | Plant response rating, Ragweed ([16]; 125 g ai/ha, scale of 0 to 100): 45 | Plant response rating, Ragweed ([16]; 16 g ai/ha, scale 0 to 100): 0 | Plant response rating, Ragweed ([16]; 31 g ai/ha, scale 0 to 100): 0 | Plant response rating, Ragweed ([16]; 62 g ai/ha, scale 0 to 100): 40 | Plant response rating, Nutsedge, Yellow ([17]; 125 g ai/ha, scale of 0 to 100): 30 | Plant response rating, Nutsedge, Yellow ([17]; 16 g ai/ha, scale 0 to 100): 0 | Plant response rating, Nutsedge, Yellow ([17]; 31 g ai/ha, scale 0 to 100): 0 | Plant response rating, Nutsedge, Yellow ([17]; 62 g ai/ha, scale 0 to 100): 0 | Plant response rating, Morningglory ([18]; 125 g ai/ha, scale of 0 to 100): 65 | Plant response rating, Morningglory ([18]; 16 g ai/ha, scale 0 to 100): 10 | Plant response rating, Morningglory ([18]; 31 g ai/ha, scale 0 to 100): 20 | Plant response rating, Morningglory ([18]; 62 g ai/ha, scale 0 to 100): 35
